Assay results: patent US11224609B2, “Mithramycin derivatives having increased selectivity and anti-cancer activity” (University of Kentucky Research Foundation, priority 2017, dated 2022)
“Also recorded” adds a separate entry of the source.

Key:
[1] = tested on: VCaP prostate cancer cells (TMPRSS2-ERG); test: 72 h GI50 assay in VCaP; conditions: for GI50: read-out: VCaP Prostate Cancer TMPRSS2-ERG GI50, 72 h growth inhibition, VCaP cells; for Ratio of median GI50 Prostate cells lacking TMPRSS2-ERG:VCaP: selectivity for VCaP over other prostate cancer cell lines
[2] = tested on: CMV promoter; test: CMV promoter luciferase reporter assay in stably transfected TC-32 cells (non-specific control); type: cell-based; conditions: 12 h, treated up to 10 μM
Excerpt: Full-length NR0B1 promoter sequence was PCR amplified using Q5 high-fidelity DNA polymerase (New England Biolabs, Ipswich, Mass.) from genomic DNA of TC-32 cells and cloned into the pGLUC-Basic 2 vector (New England Biolabs, Ipswich, Mass.). XhoI and KpnI restriction sites were incorporated into the primers. After restriction enzyme (New England Biolabs, Ipswich, Mass.) digest and purification by gel electrophoresis, the target amplicon was ligated into the pGLUC-Basic 2 vector using T4 DNA ligase (Thermo Fisher Scientific, Waltham, Mass.). Chemically competent TOP10 E. coli cells were used to propagate vectors under ampicillin selection (100 μg/mL) (Thermo Fisher Scientific, Waltham, Mass.). The resulting vectors were extracted and purified using GeneJET plasmid prep kit (Thermo Fisher Scientific, Waltham, Mass.). The purified vector was transfected into TC-32 cells using lipofectamine 3000 (Thermo Fisher Scientific, Waltham, Mass.) with subsequent G418 selection (1 mg/mL) (VWR, Radnor, Pa.). Separately, TC-32 cells were transfected with pCMV-Red Firefly Vector (Thermo Fisher Scientific, Waltham, Mass.) with subsequent puromycin selection (0.1 mg/mL) (Sigma, St. Louis, Mo.) as a control.
Selected TC-32 cells, expressing either NR0B1 or CMV luciferase reporter vectors, were seeded in clear 96-well plates at a density of 10,000 cells/well. […] After a 12 h treatment, media was removed and cells were washed 3 times with DPBS (Thermo Fisher Scientific, Waltham, Mass.). Cells were directly lysed on a plate shaker for 30 min at room temperature using 100 μL of passive membrane lysis solution. Lysates (80 μL) were transferred to a white luminescence plate. Luciferase substrate, either coelenterazine or D-luciferin (50 μL of 1× solution), for NR0B1 or CMV vectors, respectively, was added in a Glomax 96 microplate luminometer (Promega, Madison, Wis.) and luminescence was immediately measured. Delay before and after injections were set to the default of 0.4 s and a 10 s integration time was used. All reagents used in this assay were from the dual luciferase reporter assay system (Promega, Madison, Wis.). Concurrently, an additional 96 well plate was seeded and treated under the exact same conditions to determine cell viability using resazurin assay. Luminescence results were normalized to cell viability.

[3] = tested on: PC-3 (prostate cancer, no ETS translocation) cell line; test: 72 h growth inhibition (GI50) assay in PC-3; conditions: read-out: PC-3 Prostate cancer No ETS Translocation GI50; 72 h growth inhibition, PC-3 cells
[4] = tested on: NR0B1 mRNA; test: Relative mRNA expression (qRT-PCR) of NR0B1 in TC-32 cells; type: cell-based; conditions: 6 and 12 h treatments at GI50
Description: TC-32 cells were seeded in 6-well plates at a density of 300,000 cells/well. […] After 6 and 12 h treatments media was removed. Cells were washed with DPBS and 500 μL of 0.05% Trypsin with 0.53 mM EDTA (Corning, Corning, N.Y.) was added. After a 2-3 min incubation, cells detached from the plate and 1 mL of fresh RPMI media was immediately added. Cells were collected in 1.5 mL tubes on ice and centrifuged to a pellet at 1200× g for 5 min. Supernatant was removed and cell pellets were lysed with 600 μL of RLT lysis buffer (Qiagen, Hilden, Germany). Lysates were centrifuged through QIAshredder inserts for complete cell disruption (Qiagen, Hilden, Germany). RNeasy mini spin columns were used to isolate pure RNA (Qiagen, Hilden, Germany). RNA concentrations were measured using NanoDrop 2000 Spectrometer (Thermo Fisher Scientific, Waltham, Mass.) and a 100 ng/μL stock solution was prepared. RNA (1 μg) was used to prepare cDNA with a MultiScribe reverse transcriptase (Thermo Fisher Scientific, Waltham, Mass.). qRT-PCR reactions were conducted using Maxima SYBR green Taq DNA Polymerase (Thermo Fisher Scientific, Waltham, Mass.). EpMotion5070 (Eppendorf, Hamburg, Germany) robot was used to mix reactions in 384 well plates and thermocycling was completed on a QuantStudio 7 Flex (Thermo Fisher Scientific, Waltham, Mass.). […]

[5] = tested on: DMS 114 cells; test: 72 h GI50 assay in DMS 114; conditions: read-out: DMS 114 GI50; 72 h growth inhibition
[6] = tested on: ES-7 Ewing sarcoma cells (EWS-FLI1 Type 4); test: 72 h GI50 assay in ES-7; conditions: read-out: ES-7 EWS-FLI1 Type 4 GI50; 72 h growth inhibition
[7] = tested on: LNCaP cells; test: 72 h GI50 assay in LNCaP; conditions: read-out: LNCaP GI50; 72 h growth inhibition
[8] = tested on: ES-2 Ewing sarcoma cells (EWS-FLI1 Type 3); test: 72 h GI50 assay in ES-2; conditions: read-out: ES-2 EWS-FLI1 Type 3 GI50; 72 h growth inhibition

Compound: COC(=O)C(Cc1c[nH]c2ccccc12)NC(=O)C(Cc1c[nH]c2ccccc12)NC(=O)C(OC)C1Cc2cc3cc(OC4CC(OC5CC(O)C(O)C(C)O5)C(O)C(C)O4)c(C)c(O)c3c(O)c2C(=O)C1OC1CC(OC2CC(OC3CC(C)(O)C(O)C(C)O3)C(O)C(C)O2)C(O)C(C)O1 (centres unmarked) [Analogue 61, MTMSA-Trp-Trp]
- GI50 [1]: 31 nM
- Ratio of median GI50 Prostate cells lacking TMPRSS2-ERG:VCaP [1]: 18.3
- CMV promoter driven luciferase signal [2]: no effect at all; also recorded: did not decrease
- CMV promoter driven luciferase signal ([2]; listed as MTMSA-Trp-Trp (61)): Lack of effect
- GI50 [3]: 568 nM
- NR0B1 mRNA expression [4]: decreased
- GI50 [5]: 1120 nM
- GI50 [6]: 48 nM
- GI50 [7]: 856 nM
- GI50 [8]: 123 nM

Compound: COC(=O)C(Cc1c[nH]c2ccccc12)NC(=O)C(Cc1ccccc1)NC(=O)C(OC)C1Cc2cc3cc(OC4CC(OC5CC(O)C(O)C(C)O5)C(O)C(C)O4)c(C)c(O)c3c(O)c2C(=O)C1OC1CC(OC2CC(OC3CC(C)(O)C(O)C(C)O3)C(O)C(C)O2)C(O)C(C)O1 (centres unmarked) [Analogue 60, MTMSA-Phe-Trp]
- GI50 [1]: 39 nM
- Ratio of median GI50 Prostate cells lacking TMPRSS2-ERG:VCaP [1]: 25.4
- CMV promoter driven luciferase signal [2]: no effect at all; also recorded: did not decrease
- CMV promoter driven luciferase signal ([2]; listed as MTMSA-Phe-Trp (60)): Lack of effect
- GI50 [3]: 1130 nM
- NR0B1 mRNA expression [4]: decreased
- GI50 [5]: 1140 nM
- GI50 [6]: 46 nM
- GI50 [7]: 1610 nM
- GI50 [8]: 78 nM
